Data on 4 compounds can be found in patent US8470876B2, “Lipid composition for the treatment of skin problems in companion animals” (priority 2009, dated 2013).

Common to all, as to assay type: in vivo
One experiment has as its system rhinarium. Put plainly: Case: French Bulldog with dry, rough and chapped rhinarium. To be noted: past treatment history of the same dog. From the text: In this breed of dogs the rhinarium is typically black, but for this individual the black colour of the rhinarium had faded and was grey. […] Topical treatment with oil or ointments provided temporary smoothing effect and a change in colour. […] The rhinarium was no longer rough and chapped, but it was supple and had obtained a characteristic black colour. Subsequently the positive effect on the rhinarium condition was produced with the oil blend in dogs from different breeds.

A further experiment relates to skin and claws. The experiment can be described thus: Case: Bullterrier with skin problems and splitting and breaking claws. To be noted: past treatment history of the same dog. The text has this: A three year old, female Bullterrier Dog had suffered from various skin problems since it was a puppy. The skin problems were characterized by red spots in the stomach and hairless spots in the head and in the hind limbs. In addition to the skin problems the dog suffered from splitting and breaking claws. The claws kept constantly breaking and by the age of three the claws had never grown long enough to be clipped. […] The skin was cleared from the red spots and the hairless areas started to grow hair. The positive effects on the skin health remained over several months as the supplementation was continued. […] Three months after the supplementation with the oil blend had begun, the dog's claws needed to be clipped. This was the first time in this dog's life.

The test system of experiment [1] is symmetrical lupoid onychodystrophy (SLO). Put plainly: Case: schapendoes dog with symmetrical lupoid onychodystrophy (SLO). To be noted: initial treatment before supplementation. The protocol: A four year old, female schapendoes dog was diagnosed with symmetrical lupoid onychodystrophy (SLO). […] Supplementation with the nutritional oil blend as prepared in example 1 at 4 ml/10 kg body weight was started immediately after the secondary infections had cleared.

The next experiment relates to atopic and pruritic skin. Put plainly: Case: Parson Russell terrier with atopic and pruritic skin. The conditions noted are these: past treatment history of the same dog. The text has this:
An eight-year-old Parson Russell terrier had suffered for a long time from atopic and pruritic skin. The dog had been treated with cortisone and with a variety of different fatty acid supplements containing GLA and fish oil fatty acids (EPA and DHA). […] Constant itching tired the dog and it became phlegmatic. The dog was put on daily dosing of the nutritional oil blend as prepared in example 1 and a clear change in the dogs skin condition and behaviour occurred in a matter of weeks. The rashes and itching was reduced by 95%.

Consider `O=C(O)CCCC[C@@H]1SC[C@@H]2NC(=O)N[C@@H]21` [biotin], for which the “appearance of the rhinarium with earlier nutritional supplements” value with rhinarium is recorded as “without any appreciable effect”. Moreover, the “claws with earlier treatment” value in the experiment with skin and claws is recorded as “without any appreciable improvement”.

As for `CC1=C(C(=O)O)N2C(=O)[C@@H](NC(=O)[C@H](N)c3ccccc3)[C@H]2SC1` [cephalexin], the “secondary bacterial infections in affected claws” value in experiment [1] was “total resolution of the bacterial infection”.

Take `C[C@]12CCC(=O)C=C1CC[C@@H]1[C@@H]2C(=O)C[C@@]2(C)[C@H]1CC[C@]2(O)C(=O)CO` [cortisone]: in the experiment on atopic and pruritic skin, the “effect of earlier treatments on atopic and pruritic skin” value is given as “provided help only for some weeks”.

Turning to vitamin A, the “appearance of the rhinarium with earlier nutritional supplements” value in the experiment on rhinarium was “without any appreciable effect”.
